# Experimental data from patent US20090124690A1, “Generation of Combinatorial Synthetic Libraries and Screening for Novel Proadhesins and Nonadhesins” (priority 2000, published 2009).
# pIC50: −log10 of the molar value.
# What was measured:
# [1] = tested on: Staphylococcus epidermidis; experiment: 96-well plate assay for activity against Staphylococcus epidermidis (adhesion, Syto 13); conditions: compound tested at 0.5%
# [2] = tested on: Colletotrichum acutatum; experiment: Petri dish assay for activity against Colletotrichum acutatum (spore adhesion); conditions: for Inhibition of adhesion of spores to polystyrene surfaces, Colletotrichum acutatum: compound tested at 0.5%
# [3] = tested on: MRSA Staphylococcus aureus; experiment: Anti-adhesion assay, MRSA Staphylococcus aureus; format: cell-based; conditions: for ICMAX / ICMAX: level of maximal inhibition (ICxx): anti-adhesion, MRSA S. aureus, cell reads 'ICxx - concentration'
# [4] = tested on: Dengue 2; experiment: Anti-infection (adhesion) of viruses: Dengue 2, focus forming unit (FFU) reduction assay on LLCMK-2 cells; format: cell-based, Dengue virus (DENV-2 strain NG-2); conditions: FIG. 6
# Experimental: (§1) DENV-1 strain HI-1, DENV-2 strain NG-2, DENV-3 strain H-78, and DENV-4 strain H-42 were obtained from R. Tesh at the World Health Organization Arbovirus Reference Laboratory at the University of Texas at Galveston. Viruses were propagated in the African green monkey kidney epithelial cell line, LLCMK-2, a gift of K. Olsen at Colorado State University. LLCMK-2 cells were grown in DMEM with 10% (v/v) FBS, 2 mM Glutamax, 100 U/ml penicillin G, 100 μg/ml streptomycin and 0.25 μg/ml amphotericin B, at 37° C. with 5% (V/V) CO2.
# LLCMK-2 target cells were seeded at a density of 1×10^5 cells in each well of a 6-well plate 24 h prior to infection. Approximately 200 FFU of virus were incubated with or without chemistries in serum-free DMEM for 1 h at rt. […] Virus foci were detected using supernatant from mouse anti-DENV hybridoma E60 (obtained from M. Diamond at Washington University) followed by horseradish peroxidase-conjugated goat anti-mouse immunoglobulin (Pierce, Rockford, Ill.) and developed using AEC chromogen substrate (Dako, Carpinteria, Calif.). Results were expressed as the average of at least two independent trials with three replicates in each trial.
# [5] = tested on: P. aerug.; experiment: Library screening against P. aeruginosa (IC50); format: cell-based, Pseudomonas aeruginosa; conditions: Table 3
# [6] = tested on: Dengue virus; experiment: Direct binding assay (DART TOF-MS), Dengue virus; conditions: FIG. 6
# From the text: The virus particles were collected and fixed in 100% (USP) ethanol prior to DART TOF-MS analysis. The closed end of a borosilicate glass capillary tube was immersed in the virion solution and passed through the DART He plasma to obtain mass spectra of virion surface-bound chemistries. […] The same conditions were used to assess the binding of composition here to bacterial species. • 1. […] Viruses and Cells
# as §1
smiles,measurement,setting,value
CNC(=O)C(Cc1ccc(OS(C)(=O)=O)cc1)NC(=O)COCC(=O)Nc1cccc(OS(C)(=O)=O)c1 (stereo not drawn) [Compound A02],"Inhibition of adhesion of cells to polystyrene surfaces, Staphylococcus epidermidis",[1],22%
same,"Inhibition of adhesion of spores to polystyrene surfaces, Colletotrichum acutatum",[2],−12%
CNC(=O)C(Cc1ccc(OS(=O)(=O)C(F)(F)F)cc1)NC(=O)COCC(=O)Nc1cccc(OS(=O)(=O)C(F)(F)F)c1 (stereo not drawn) [Compound B02],"Inhibition of adhesion of spores to polystyrene surfaces, Colletotrichum acutatum",[2],−16%
"O=C(O)/C=C/c1ccc(OS(=O)(=O)O)cc1 [Zosteric Acid, reference compound]",ICMAX,[3],90 µM
same,ICMAX: level of maximal inhibition (ICxx),[3],IC100
CCN(CCOC(=O)/C=C/c1ccc(O)cc1)Cc1cc(Cl)ccc1O [Compound I],Dengue infection when compound is bound,[4],inhibited
same,IC50 (% wt/vol) P. aerug.,[5],0.001 % wt/vol
same,IC50 (% wt/vol) C. acut.,[2]; Table 3,0.004 % wt/vol
same,pIC50,"[3]; Staphylococcus aureus, MRSA",4.09
same,ICMAX,[3],120 µM
same,ICMAX: level of maximal inhibition (ICxx),[3],IC70
same,direct binding to Dengue virus (DART-MS),[6],direct binding
